# Source: US6407125B1, “Pharmacological agent and method of treatment” (Novactyl, Inc., priority 1995, dated 2002)
# Key:
# [1] = system: human breast adenocarcinoma MDA-468 cell; assay: Growth of MDA-468 cells (cell number, DNA synthesis); type: cell-based; conditions: MDA-468, 500 μM fusaric acid
# Procedure: After 12-24 hours of treatment with 500 μM fusaric acid, there was no further increase in cell number. […] These floating cells were not viable. Within 30 hours of treatment there was a 65% decrease in cell number. […] After 96 hours, less than 10% of the original population remained attached to the dish and no change in cell number was noted after one additional week.
# LoVo cells [2] = assay: Viability of LoVo cells (trypan blue exclusion); type: cell-based, human; conditions: 500 μM fusaric acid
# Procedure: As in the case of WI-38, LoVo cell viability after fusaric acid treatment was investigated in logarithmically growing and confluent cells, as shown in Tables 2 and 3. In logarithmically growing LoVo cells, approximately 38% of the attached cells were viable after 30 hours of treatment with fusaric acid. When the cells were treated for 78 hours, only 4.5% of the cell population survived the pronounced cytotoxic actions of fusaric acid. […] Thus, LoVo cells are much more sensitive to the cytotoxic actions of fusaric acid in both growing and confluent population of cells in comparison to normal WI-38 cells.
# KB cells [3] = assay: Viability of KB cells (trypan blue exclusion); type: cell-based, human; conditions: 500 μM fusaric acid
# Procedure: To examine KB cell viability in greater detail, the effects of fusaric acid were studied in logarithmically growing and confluent cells. In logarithmically growing KB cells 70% of the cells were viable after 48 hours in 500 μtM fusaric acid. […] Thus, in contrast to LoVo cells, a significant proportion of the population of growing (70%) cells and virtually all (95%) of confluent KB cells resisted the pronounced cytotoxic action of fusaric acid (See Tables 3 and 4, above).
# Prostatic adenocarcinoma = assay: Viability of other human carcinoma cell types; type: cell-based; conditions: 48 hours of treatment
# Procedure: (§1) As in previous examples, the following human cell lines were inhibited by similar concentrations of fusaric acid: Prostatic adenocarcinoma, skin carcinoma, colon carcinoma, liver adenocarcinoma and lung adenocarcinoma. For all these cell types, cell viability decreased by approximately 60% after 48 hours of treatment with fusaric acid.
# skin carcinoma = assay: Viability of other human carcinoma cell types; type: cell-based; conditions: 48 hours of treatment
# Procedure: as §1
# liver adenocarcinoma = assay: Viability of other human carcinoma cell types; type: cell-based; conditions: 48 hours of treatment
# Procedure: as §1
# lung adenocarcinoma = assay: Viability of other human carcinoma cell types; type: cell-based; conditions: 48 hours of treatment
# Procedure: as §1
# colon carcinoma = assay: Viability of other human carcinoma cell types; type: cell-based; conditions: 48 hours of treatment
# Procedure: as §1
# MDA-468 cells = type: cell-based, human
# Procedure: As in the case of WI-38, MDA-468 cell viability after fusaric acid treatment was investigated in logarithmically growing and confluent cells. In logarithmically growing MDA-468 cells, less than 20% of the attached cells were viable after 30 hours of treatment with fusaric acid. When the cells were treated for 48 hours, only 0.1% of the cell population survived the pronounced cytotoxic actions of fusaric acid. […] Thus, MDA-468 cells are extremely sensitive to the cytotoxic actions of fusaric acid in both growing and confluent population of cells in comparison to normal WI-38 lines studied.
# WI-38 cells [4] = assay: Viability of WI-38 cells (trypan blue exclusion); type: cell-based; conditions: 500 μM fusaric acid
# Procedure: To examine WI-38 cell viability in greater detail, the effects of fusaric acid were studied in logarithmically growing and contact inhibited confluent cells (Tables 2 and 3). In logarithmically growing WI-38 cells approximately 76% of the cells were viable after 30 hours of treatment with fusaric acid. When the cells were treated for 78 hours, only 26% of the cell population survived the pronounced cytotoxic actions of fusaric acid.
# KB cells [5] = assay: Growth of KB cells; type: cell-based, human; conditions: 48 hours in 500 μM
# LoVo cells [6] = assay: Growth of LoVo cells (total cell protein, cell number, DNA synthesis); type: cell-based, human; conditions: for Monolayer Protein: fusaric acid 0.5 mM
# Procedure: (§2) Cells were plated at 1.5×10^5 cells/60-mm dish; 48 hours later, the medium was removed, and new media with or without 3 mM picolinic acid was added. Total cell protein was determined at the indicated times; each point is the average of triplicate measurements from 2 cultures.
# (§3) In initial experiments to examine the effects of fusaric acid on cell growth and viability, WI-38 and LoVo cells were incubated for 24 to 72 hours in medium with or without various doses of fusaric acid (0.1-1 mM). The growth of both WI-38 and LoVo cells was inhibited by 500 μM fusaric acid in a time and dose dependent manner, as shown below in Table 2.
# After 30 hours of treatment with 500 μM fusaric acid, there was a prominent decrease in cell number. DNA synthesis was completely (100%) inhibited by 24 hours. When treated with 500 μM fusaric acid, the majority of the LoVo cells acquired a rounded morphology by 48 hours.
# However, after 100 hours, an increase in cell number was noted after 25 additional hours.
# WI-38 cells [7] = assay: Growth of WI-38 cells (total cell protein, cell number); type: cell-based; conditions: for Monolayer Protein: WI-38, fusaric acid 0.5 mM
# Procedure: as §2, §3
smiles,measurement,setting,value
CCCCc1ccc(C(=O)O)nc1 [fusaric acid],inhibition at 500 µM,"[1]; Homo sapiens, by 24 hr",100%
same,decrease in cell number,[1]; within 30 hours,65%
same,% Survival,"LoVo cells [2]; confluent cells, 48 h",40%
same,% Survival,"LoVo cells [2]; logarithmic growth, 78 h",4.5%
same,viability at 500 µM,"KB cells [3]; Homo sapiens, logarithmically growing, 48 hours, read-out: viable cells",70%
same,% Survival,"KB cells [3]; confluent cells, 48 h",95%
same,decrease in cell viability,Prostatic adenocarcinoma,approximately 60%
same,decrease in cell viability,skin carcinoma,approximately 60%
same,decrease in cell viability,liver adenocarcinoma,approximately 60%
same,decrease in cell viability,lung adenocarcinoma,approximately 60%
same,decrease in cell viability,colon carcinoma,approximately 60%
same,cells surviving,"MDA-468 cells; MDA-468, confluent, 500 μM fusaric acid, 48 hours",10%
same,viable attached cells,"MDA-468 cells; MDA-468, logarithmically growing, fusaric acid, 30 hours",less than 20%
same,cell population surviving,"MDA-468 cells; MDA-468, logarithmically growing, fusaric acid, 48 hours",0.1%
same,% Survival,"WI-38 cells [4]; WI-38, confluent cells, 48 h",100%
same,% Survival,"WI-38 cells [4]; WI-38, logarithmic growth, 78 h",26%
same,time to resumed growth after removal of fusaric acid,KB cells [5],27 h
same,cytotoxicity in LoVo cells,"LoVo cells [6]; 1 mM fusaric acid, by 24 hours",extensive cytotoxicity
same,inhibition at 500 µM,"LoVo cells [6]; Homo sapiens, LoVo, 24 h, read-out: inhibition of DNA synthesis",100%
same,decrease in cell number,"LoVo cells [6]; LoVo, 500 μM fusaric acid, within 30 hours of treatment",60%
same,Monolayer Protein,"LoVo cells [6]; LoVo, 24 h",135 μg/dish
same,Monolayer Protein,"LoVo cells [6]; LoVo, 48 h",90 μg/dish
same,Monolayer Protein,"LoVo cells [6]; LoVo, 72 h",101 μg/dish
same,Monolayer Protein,WI-38 cells [7]; 24 h,195 μg/dish
same,Monolayer Protein,WI-38 cells [7]; 48 h,275 μg/dish
same,Monolayer Protein,WI-38 cells [7]; 72 h,345 μg/dish
same,time to resumed growth after removal of fusaric acid,"WI-38 cells [7]; WI-38, 30 hours in 500 μM",125 h
same,decrease in cell number after removal of fusaric acid,"WI-38 cells [7]; WI-38, 30 hours in 500 μM, then 4 days in normal media",30%
same,cells surviving after removal of fusaric acid,"WI-38 cells [7]; WI-38, remaining cells after 30 hours in 500 μM",> 95%
